Laboratory results taken from ChEMBL document CHEMBL1201862, “PubChem BioAssay data set” (2004).
The source made the active and inactive calls.

Experiments:
[1] = NIH-3T3 fibroblast cytotoxicity, dose response, cytotoxicity control, cell-based, fluorescence, Alamar Blue, secondary assay (AID 2327); type: functional;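 further: NIH-3T3 mouse fibroblasts cultured with fluconazole at 8 µg/mL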
Large T antigen = Large T antigen (Simian virus 40, UniProt P03070); type: functional, Betapolyomavirus macacae;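 further: Confirmatory-stage PubChem screen for compounds that inhibit SV40 T antigen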
Large T antigen, sequence (P03070 whole entry): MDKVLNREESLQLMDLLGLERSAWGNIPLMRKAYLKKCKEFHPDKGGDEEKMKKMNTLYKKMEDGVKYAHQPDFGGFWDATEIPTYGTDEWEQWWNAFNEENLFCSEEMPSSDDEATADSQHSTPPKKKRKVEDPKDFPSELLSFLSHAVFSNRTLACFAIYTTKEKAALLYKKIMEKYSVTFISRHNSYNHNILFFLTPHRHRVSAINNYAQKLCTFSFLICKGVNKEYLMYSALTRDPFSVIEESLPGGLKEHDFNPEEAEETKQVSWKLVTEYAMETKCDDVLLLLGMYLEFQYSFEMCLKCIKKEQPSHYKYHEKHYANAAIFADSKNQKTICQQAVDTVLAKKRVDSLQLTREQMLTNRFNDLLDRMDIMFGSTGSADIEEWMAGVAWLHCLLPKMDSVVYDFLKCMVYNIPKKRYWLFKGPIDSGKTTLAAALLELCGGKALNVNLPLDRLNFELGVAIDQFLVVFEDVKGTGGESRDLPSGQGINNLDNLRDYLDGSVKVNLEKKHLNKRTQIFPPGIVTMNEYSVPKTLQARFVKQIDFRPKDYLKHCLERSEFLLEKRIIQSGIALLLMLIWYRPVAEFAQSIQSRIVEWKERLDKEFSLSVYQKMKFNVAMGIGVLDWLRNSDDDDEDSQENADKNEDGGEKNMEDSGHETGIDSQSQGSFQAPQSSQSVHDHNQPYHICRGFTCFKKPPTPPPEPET

Beta-galactosidase = Beta-galactosidase (Escherichia coli, UniProt Q8VNN2); experiment: PubChem AID 485352; type: functional
Beta-galactosidase, sequence (Q8VNN2 whole entry): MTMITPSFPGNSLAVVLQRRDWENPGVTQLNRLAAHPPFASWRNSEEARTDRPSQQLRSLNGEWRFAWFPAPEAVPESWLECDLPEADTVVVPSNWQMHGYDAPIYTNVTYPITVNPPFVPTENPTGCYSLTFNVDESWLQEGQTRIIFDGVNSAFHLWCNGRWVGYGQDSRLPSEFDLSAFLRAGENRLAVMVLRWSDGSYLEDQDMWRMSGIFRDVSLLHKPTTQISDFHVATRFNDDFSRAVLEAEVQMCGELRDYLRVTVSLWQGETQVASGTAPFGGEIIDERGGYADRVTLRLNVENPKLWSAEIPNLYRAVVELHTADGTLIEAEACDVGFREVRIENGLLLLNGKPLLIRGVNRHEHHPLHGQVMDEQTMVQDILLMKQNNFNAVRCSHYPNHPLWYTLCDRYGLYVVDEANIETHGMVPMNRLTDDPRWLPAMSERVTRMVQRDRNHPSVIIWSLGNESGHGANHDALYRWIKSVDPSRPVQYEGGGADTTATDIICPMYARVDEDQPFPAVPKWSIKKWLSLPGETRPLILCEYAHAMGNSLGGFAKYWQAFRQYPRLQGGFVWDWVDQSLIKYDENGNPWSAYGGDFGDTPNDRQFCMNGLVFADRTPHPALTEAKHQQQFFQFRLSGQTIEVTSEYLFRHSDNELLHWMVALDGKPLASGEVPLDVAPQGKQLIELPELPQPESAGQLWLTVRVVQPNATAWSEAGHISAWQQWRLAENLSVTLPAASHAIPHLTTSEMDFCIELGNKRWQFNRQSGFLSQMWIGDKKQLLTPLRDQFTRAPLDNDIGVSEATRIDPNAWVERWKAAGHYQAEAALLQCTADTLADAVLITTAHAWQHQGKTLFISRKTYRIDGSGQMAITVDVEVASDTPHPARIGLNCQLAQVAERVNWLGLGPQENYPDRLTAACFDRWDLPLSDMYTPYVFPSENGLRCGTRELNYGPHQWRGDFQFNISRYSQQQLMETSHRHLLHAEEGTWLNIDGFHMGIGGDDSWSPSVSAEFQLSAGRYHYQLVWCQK

[2] = fluconazole-exposed Candida albicans growth modulators – fluorescence, retest, confirmation (AID 2467); type: functional, cell-based
[3] = viability of PTEN-deleted HCT116 cells – cell-based, HCT116 PTEN knockout, dose response (AID 1047); type: functional;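 further: HCT116 colon tumor cells with PTEN knocked out; cells exposed to compound for 60 hours before readout; potency for loss of cell viability measured by luminescence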
[4] = molecular target: Glucose-6-phosphate 1-dehydrogenase (Homo sapiens, UniProt P11413); experiment: inhibition of Homo sapiens G6PD, dose series – biochemical, fluorescence, selectivity assay for P. falciparum G6PD inhibitor project, dose response (AID 504792); type: functional
Glucose-6-phosphate 1-dehydrogenase, sequence (P11413 whole entry): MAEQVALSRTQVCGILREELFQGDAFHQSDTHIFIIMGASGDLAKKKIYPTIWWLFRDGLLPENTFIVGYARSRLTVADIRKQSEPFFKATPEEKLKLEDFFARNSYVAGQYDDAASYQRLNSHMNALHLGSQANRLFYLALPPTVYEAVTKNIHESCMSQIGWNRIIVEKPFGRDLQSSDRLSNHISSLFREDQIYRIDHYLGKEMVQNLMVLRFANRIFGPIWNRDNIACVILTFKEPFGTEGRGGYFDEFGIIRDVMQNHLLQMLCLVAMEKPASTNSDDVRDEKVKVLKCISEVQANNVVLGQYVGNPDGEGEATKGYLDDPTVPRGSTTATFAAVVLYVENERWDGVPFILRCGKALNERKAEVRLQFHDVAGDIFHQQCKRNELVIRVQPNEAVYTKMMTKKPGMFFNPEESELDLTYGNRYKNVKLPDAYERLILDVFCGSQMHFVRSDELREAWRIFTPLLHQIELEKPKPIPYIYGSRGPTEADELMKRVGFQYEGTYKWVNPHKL

[5] = viability of HCT116 lacking mutant beta-catenin – cell-based, human colon tumor, dose response (AID 1045); type: functional;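 further: HCT116 colon tumor cells with beta catenin knocked out; cells exposed to compound for 60 hours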
[6] = molecular target: T1, Type-1 angiotensin II receptor (Homo sapiens, UniProt P30556); experiment: antagonism of angiotensin II type 1 receptor – cell-based, uHTS hits, selectivity assay for APJ receptor antagonist project, dose response (AID 463214); type: functional;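 further: antagonist potency against angiotensin II stimulated AT1 response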
T1 sequence (P30556 whole entry): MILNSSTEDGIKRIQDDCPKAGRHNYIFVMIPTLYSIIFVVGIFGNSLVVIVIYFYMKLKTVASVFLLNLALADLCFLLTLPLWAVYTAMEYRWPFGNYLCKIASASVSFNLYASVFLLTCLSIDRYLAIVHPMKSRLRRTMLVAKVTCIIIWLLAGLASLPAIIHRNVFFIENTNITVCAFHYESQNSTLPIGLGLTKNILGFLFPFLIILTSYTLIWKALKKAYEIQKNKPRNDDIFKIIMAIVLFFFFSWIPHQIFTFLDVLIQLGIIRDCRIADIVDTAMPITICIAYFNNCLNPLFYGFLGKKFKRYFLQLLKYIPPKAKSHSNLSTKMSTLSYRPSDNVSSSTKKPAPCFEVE

Vero [7] = experiment: cells; type: functional; details: Chlorocebus sabaeus
[8] = molecular target: Heat shock protein HSP 90-alpha (Homo sapiens, UniProt P07900); type: functional, organism-based
[9] = molecular target: Bifunctional protein GlmU (Mycobacterium tuberculosis, UniProt P9WMN3); experiment: Inhibitors of Mycobacterial Glucosamine-1-phosphate acetyl transferase (GlmU). Secondary screen.; parameters: species or system Mycobacterium tuberculosis H37Rv
Bifunctional protein GlmU, sequence (P9WMN3 whole entry): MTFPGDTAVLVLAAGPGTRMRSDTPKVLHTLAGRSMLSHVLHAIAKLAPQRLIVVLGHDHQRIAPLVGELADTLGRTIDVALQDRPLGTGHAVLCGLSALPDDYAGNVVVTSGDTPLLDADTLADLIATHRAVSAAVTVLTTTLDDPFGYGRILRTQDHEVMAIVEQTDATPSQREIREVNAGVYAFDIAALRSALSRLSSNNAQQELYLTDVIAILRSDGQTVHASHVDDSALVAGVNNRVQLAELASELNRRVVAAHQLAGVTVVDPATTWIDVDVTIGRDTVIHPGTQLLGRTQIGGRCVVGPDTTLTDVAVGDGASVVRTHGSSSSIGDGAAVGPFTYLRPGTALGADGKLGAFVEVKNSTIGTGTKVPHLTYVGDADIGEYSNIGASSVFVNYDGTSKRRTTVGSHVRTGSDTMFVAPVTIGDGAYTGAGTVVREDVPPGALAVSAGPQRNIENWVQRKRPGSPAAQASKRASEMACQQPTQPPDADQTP

[10] = molecular target: Induced myeloid leukemia cell differentiation protein Mcl-1 (Homo sapiens, UniProt Q07820); type: functional
Induced myeloid leukemia cell differentiation protein Mcl-1, sequence (Q07820 whole entry): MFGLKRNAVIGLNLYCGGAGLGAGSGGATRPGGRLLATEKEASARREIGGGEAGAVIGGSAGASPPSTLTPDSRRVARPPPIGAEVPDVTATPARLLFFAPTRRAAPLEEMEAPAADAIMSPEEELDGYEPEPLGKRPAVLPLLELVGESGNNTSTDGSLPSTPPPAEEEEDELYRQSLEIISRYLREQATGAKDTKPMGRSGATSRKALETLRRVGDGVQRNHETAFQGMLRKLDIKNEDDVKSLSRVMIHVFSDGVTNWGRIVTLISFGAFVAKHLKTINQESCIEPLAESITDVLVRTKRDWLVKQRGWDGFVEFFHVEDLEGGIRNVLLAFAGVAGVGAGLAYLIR

Vero [11] = experiment: viability of Vero cells under compound – cytotoxicity control for flavivirus capping enzyme inhibitors (AID 588742); type: functional; details: Chlorocebus sabaeus
Aminopeptidase N = molecular target: T2, Aminopeptidase N (Plasmodium falciparum FcB1/Columbia, UniProt O96935); experiment: malaria alanyl aminopeptidase activity blockers – biochemical, fluorogenic H-Leu-NHMec substrate, 1536-well (AID 1445); parameters: species or system Plasmodium falciparum 3D7, 3D7
T2 sequence (O96935 whole entry): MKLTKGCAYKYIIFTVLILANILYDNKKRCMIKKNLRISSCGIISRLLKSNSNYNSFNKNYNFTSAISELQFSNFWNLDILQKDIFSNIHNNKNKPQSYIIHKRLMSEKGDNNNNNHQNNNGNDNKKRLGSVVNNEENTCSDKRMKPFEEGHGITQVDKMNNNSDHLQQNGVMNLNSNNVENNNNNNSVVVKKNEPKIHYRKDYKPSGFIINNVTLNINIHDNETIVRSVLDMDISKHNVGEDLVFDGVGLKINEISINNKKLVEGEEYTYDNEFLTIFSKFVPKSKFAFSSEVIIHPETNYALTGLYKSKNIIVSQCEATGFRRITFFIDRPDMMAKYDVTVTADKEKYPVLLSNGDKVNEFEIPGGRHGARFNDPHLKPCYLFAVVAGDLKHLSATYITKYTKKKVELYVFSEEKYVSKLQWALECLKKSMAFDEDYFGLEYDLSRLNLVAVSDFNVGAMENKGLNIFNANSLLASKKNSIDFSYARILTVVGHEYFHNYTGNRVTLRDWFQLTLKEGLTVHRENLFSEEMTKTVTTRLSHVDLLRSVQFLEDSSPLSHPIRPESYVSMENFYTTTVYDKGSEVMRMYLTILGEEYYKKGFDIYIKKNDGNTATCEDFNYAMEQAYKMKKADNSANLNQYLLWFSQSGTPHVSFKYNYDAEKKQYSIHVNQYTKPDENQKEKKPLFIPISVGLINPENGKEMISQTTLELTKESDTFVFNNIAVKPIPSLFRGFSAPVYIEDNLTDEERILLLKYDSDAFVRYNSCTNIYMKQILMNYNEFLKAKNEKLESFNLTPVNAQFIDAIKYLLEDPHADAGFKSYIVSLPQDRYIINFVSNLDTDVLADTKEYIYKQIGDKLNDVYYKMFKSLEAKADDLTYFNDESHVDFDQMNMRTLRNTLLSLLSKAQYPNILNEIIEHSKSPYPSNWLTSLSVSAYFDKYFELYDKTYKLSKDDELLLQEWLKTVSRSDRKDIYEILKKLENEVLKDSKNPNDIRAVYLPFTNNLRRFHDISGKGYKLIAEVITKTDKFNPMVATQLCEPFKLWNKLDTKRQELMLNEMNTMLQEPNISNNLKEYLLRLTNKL

[12] = molecular target: T3, Long-chain-fatty-acid--AMP ligase FadD28 (Mycobacterium tuberculosis, UniProt P9WQ59); experiment: Fluorescence polarization aasay to screen for inhibitors that compete for the binding of FadD28 to a bisubstrate Measured in Biochemical System Using Plate Reader - 2147-01_Inhibitor_Dose_CherryPick_Activity.; type: functional, Mycobacterium tuberculosis H37Rv
T3 sequence (P9WQ59 whole entry): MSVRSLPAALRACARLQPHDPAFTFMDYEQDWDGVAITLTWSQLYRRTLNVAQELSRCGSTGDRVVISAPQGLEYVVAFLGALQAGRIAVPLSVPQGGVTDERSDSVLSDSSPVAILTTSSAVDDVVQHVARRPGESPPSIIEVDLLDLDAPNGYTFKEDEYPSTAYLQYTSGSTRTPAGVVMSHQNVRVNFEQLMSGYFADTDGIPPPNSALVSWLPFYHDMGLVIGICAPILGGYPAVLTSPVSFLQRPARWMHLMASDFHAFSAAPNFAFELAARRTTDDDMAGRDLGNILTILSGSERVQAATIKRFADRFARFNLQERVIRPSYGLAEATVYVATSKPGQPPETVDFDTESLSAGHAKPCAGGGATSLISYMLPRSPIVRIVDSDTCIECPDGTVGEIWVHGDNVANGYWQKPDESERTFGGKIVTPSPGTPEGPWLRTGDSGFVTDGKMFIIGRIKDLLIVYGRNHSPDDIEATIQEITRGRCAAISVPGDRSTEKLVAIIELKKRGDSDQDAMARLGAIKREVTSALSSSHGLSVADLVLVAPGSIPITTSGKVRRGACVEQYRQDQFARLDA

Nonstructural protein 1 = Nonstructural protein 1 (Influenza A virus, UniProt Q194T2); type: functional, Influenza A virus (A/California/07/2009(H1N1))
Nonstructural protein 1, sequence (Q194T2 whole entry): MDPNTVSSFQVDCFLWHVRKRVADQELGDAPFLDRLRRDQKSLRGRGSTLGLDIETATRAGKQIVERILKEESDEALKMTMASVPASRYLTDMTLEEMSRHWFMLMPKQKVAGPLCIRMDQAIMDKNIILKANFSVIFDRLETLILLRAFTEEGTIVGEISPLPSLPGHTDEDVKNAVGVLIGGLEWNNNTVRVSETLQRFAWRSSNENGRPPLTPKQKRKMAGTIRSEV

Genome polyprotein = Genome polyprotein (dengue virus type 2, UniProt P29990); experiment: flavivirus cap methylation enzyme inhibition – biochemical, confirmation dose response, primary screen (AID 588689); type: functional
Genome polyprotein, sequence (P29990 2492-3391 limits assumed): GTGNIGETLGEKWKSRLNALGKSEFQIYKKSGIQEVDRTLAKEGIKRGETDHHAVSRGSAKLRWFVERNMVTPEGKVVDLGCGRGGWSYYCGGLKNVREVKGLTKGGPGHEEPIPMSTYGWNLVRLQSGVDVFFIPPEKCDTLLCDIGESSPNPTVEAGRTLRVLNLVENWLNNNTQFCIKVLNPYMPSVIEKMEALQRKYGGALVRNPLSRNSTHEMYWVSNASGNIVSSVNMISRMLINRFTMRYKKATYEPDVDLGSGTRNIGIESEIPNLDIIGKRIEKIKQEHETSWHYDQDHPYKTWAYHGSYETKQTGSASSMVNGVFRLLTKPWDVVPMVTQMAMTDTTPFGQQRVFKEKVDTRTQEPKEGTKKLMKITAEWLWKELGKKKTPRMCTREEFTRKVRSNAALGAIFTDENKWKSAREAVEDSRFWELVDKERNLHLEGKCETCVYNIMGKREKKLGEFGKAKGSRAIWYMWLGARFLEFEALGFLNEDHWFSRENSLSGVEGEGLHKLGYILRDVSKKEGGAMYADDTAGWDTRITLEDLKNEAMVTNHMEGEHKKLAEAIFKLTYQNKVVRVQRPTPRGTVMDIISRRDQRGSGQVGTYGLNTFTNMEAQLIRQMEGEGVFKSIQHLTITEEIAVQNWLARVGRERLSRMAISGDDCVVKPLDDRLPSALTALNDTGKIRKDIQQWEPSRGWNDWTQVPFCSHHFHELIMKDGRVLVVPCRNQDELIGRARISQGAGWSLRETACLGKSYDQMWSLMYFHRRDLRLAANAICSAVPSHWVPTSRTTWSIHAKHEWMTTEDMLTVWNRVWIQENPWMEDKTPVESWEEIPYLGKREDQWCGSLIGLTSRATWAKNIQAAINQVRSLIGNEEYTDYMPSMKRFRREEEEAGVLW

[13] = molecular target: T4, High affinity choline transporter 1 (Homo sapiens, UniProt Q9GZV3); experiment: human choline transporter blockers, potency – cell-based, 5-point CRC, membrane potential dye, dose response (AID 504840); type: functional
T4 sequence (Q9GZV3 whole entry): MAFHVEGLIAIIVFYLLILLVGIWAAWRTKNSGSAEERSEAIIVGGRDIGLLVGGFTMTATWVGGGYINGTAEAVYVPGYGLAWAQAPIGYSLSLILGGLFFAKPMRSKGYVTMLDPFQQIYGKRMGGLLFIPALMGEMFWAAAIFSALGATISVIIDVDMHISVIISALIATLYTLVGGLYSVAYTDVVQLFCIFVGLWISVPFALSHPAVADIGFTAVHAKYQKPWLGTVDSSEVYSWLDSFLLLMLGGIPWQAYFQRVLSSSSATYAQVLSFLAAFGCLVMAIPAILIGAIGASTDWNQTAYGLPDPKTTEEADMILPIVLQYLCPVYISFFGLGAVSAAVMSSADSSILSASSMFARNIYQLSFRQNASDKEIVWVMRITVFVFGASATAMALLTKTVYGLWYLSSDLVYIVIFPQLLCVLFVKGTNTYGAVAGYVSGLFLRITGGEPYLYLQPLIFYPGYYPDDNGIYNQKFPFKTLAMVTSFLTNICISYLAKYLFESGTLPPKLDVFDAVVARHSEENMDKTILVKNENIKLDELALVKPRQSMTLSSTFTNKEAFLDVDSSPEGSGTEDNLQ

[14] = glucagon-like peptide-1 release potency in STC-1, concentration-response, half-maximal inhibitory concentration in the STC-1 line (AID 1117345); type: functional, cell-based
[15] = IC50 of insulin release inhibition, rat insulinoma INS-1E line, 5 mM glucose, cell-based (AID 1117331); type: functional
[16] = Potency on glucagon-like peptide 1 release, dose-response in NCI-H716 cell line, half maximal inhibitory concentration (AID 1117344); type: functional, cell-based
[17] = molecular target: T5, Rac GTPase-activating protein 1 (Homo sapiens, UniProt Q9H0H5); experiment: blockers of MgcRacGAP-driven Rac1 GTP hydrolysis – biochemical, ADP Hunter fluorescence, primary and confirmatory, confirmation (AID 624330); type: functional
T5 sequence (Q9H0H5 whole entry): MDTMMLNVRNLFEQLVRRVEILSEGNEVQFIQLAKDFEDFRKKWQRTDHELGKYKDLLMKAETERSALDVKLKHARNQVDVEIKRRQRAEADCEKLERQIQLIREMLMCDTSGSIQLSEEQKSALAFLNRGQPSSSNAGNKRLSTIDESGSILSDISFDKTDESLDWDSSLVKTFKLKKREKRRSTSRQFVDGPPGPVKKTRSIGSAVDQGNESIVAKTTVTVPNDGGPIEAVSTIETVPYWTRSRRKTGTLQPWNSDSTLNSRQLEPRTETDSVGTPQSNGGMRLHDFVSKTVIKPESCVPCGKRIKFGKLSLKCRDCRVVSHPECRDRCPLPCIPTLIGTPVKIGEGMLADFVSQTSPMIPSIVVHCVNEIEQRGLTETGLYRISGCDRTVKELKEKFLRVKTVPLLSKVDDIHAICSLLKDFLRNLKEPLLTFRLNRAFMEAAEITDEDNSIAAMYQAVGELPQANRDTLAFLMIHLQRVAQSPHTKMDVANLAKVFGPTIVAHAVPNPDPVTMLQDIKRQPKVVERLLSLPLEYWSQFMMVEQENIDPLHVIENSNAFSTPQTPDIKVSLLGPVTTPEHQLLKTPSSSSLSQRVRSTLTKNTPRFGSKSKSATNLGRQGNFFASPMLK

[18] = molecular target: Glutathione-S-transferase (Schistosoma japonicum, UniProt Q26513); experiment: GST-antibody interaction or FRET quenching – biochemical, TR-FRET, artefact control for Vif-APOBEC3G degradation inhibitor project, dose response (AID 1117362); type: functional
Glutathione-S-transferase, sequence (Q26513 whole entry): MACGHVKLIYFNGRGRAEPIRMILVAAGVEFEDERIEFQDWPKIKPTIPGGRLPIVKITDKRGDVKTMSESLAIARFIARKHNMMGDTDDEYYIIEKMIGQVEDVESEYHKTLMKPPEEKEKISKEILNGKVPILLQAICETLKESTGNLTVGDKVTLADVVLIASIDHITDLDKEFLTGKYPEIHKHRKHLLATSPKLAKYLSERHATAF

[19] = viability loss in THP-1 monocytes – THP-1 cells, cytotoxicity control for Vif-APOBEC3G degradation inhibitor project, dose response (AID 1117359); type: functional; details: THP-1
Protein skinhead-1 = molecular target: T6, Protein skinhead-1 (Caenorhabditis elegans, UniProt P34707); type: functional
T6 sequence (P34707 whole entry): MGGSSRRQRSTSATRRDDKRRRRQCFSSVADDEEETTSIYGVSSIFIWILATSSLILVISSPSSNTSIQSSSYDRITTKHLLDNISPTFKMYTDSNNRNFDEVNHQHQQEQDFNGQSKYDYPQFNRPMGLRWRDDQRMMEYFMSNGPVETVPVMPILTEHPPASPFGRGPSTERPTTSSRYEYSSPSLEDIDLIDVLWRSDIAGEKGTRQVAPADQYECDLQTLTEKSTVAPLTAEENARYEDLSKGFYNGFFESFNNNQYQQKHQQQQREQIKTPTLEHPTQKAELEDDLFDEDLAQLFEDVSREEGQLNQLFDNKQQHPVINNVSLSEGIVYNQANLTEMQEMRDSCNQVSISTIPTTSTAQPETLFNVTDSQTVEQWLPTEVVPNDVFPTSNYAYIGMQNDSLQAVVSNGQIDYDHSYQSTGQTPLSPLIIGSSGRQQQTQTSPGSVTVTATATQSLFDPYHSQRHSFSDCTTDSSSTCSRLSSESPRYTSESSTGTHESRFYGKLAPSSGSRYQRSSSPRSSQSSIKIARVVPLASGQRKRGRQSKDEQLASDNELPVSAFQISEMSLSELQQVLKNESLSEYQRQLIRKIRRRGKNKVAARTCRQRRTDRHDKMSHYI

Protein Tat = Protein Tat (Human immunodeficiency virus type 1 group M subtype B (isolate HXB2)(HIV-1), UniProt P04608); type: functional;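 further: tat binding to TAR RNA read out by fluorescence polarization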
Protein Tat, sequence (P04608 whole entry): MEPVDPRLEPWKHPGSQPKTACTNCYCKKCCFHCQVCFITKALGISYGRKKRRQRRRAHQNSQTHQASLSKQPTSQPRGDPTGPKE

[20] = viability loss in HeLa cells – cytotoxicity control for MgcRacGAP inhibitor project, dose response (AID 624300); type: functional

CCN(CC)C(=S)SSC(=S)N(CC)CC
EC50 [1]: > 160 µM (inconclusive)
IC50 (Large T antigen): 10.7 µM (active)
EC50 (Beta-galactosidase): > 40 µM (inactive)
EC50 [2]: 2.43 µM (active)
EC50 [3]: 0.087 µM (active)
IC50 [4]: > 80 µM (inactive)
EC50 [5]: 0.091 µM (active)
IC50 [6]: 6.64 µM (active)
CC50 (Vero [7]): > 25 µM (active)
AC50 [8]: 5.18 µM (active)
IC50 [9]: 85 µM (active)

COc1cc(/C=C2/C(=O)c3cccc([N+](=O)[O-])c3C2=O)c(Br)cc1O
IC50 [10]: 1.39 µM (active)
IC50 (Large T antigen): 13.9 µM (active)
CC50 (Vero [11]): 34 µM (active)
IC50 (Aminopeptidase N): 5.94 µM (active)
AC50 [12]: > 100 µM (inactive)
IC50 (Nonstructural protein 1): 20.9 µM (active)
IC50 (Genome polyprotein): 7.44 µM (active)
CC50 (Vero [7]): 16.4 µM (active)
IC50 [13]: 9.13 µM (active)
IC50 [9]: 60.9 µM (active)

CCOC(=O)c1ccccc1O [ETHYL SALICYLATE]
IC50 [14]: > 40 µM (inactive)
IC50 [15]: > 33.3 µM (inactive)
IC50 [16]: > 40 µM (inactive)

N=C1C=CC(=C(c2ccc(N)cc2)c2ccc(N)cc2)C=C1 [PARAROSANILINE]
IC50 [17]: 98 µM (active)
IC50 [18]: 4.08 µM (active)
CC50 [19]: 7.58 µM (active)
IC50 (Protein skinhead-1): 13.4 µM (active)
IC50 (Nonstructural protein 1): 6.87 µM (active)
IC50 (Protein Tat): > 100 µM (active)
CC50 [20]: 50.3 µM (active)
